Mortality and inhibition data for 4 molecules are collected here from patent US20250185656A1, “PIPERIDINONE DERIVATIVE OR SALT THEREOF, HARMFUL ORGANISM CONTROL AGENT CONTAINING SAID COMPOUND, AND METHOD FOR USING SAME” (ADEKA Corporation, priority 2022, published 2025).

As usually defined, the mortality is the share of the test organisms that died. What is called inhibition is the share of the control response that was lost under treatment.

One assay concerns Plutella xylostella. Nature of the assay: Insecticidal test against Plutella xylostella. As to conditions: in Brassica rapa, 144 h, read-out: corrected mortality, rating of assessment.
Assay [1] has as its system Frankliniella occidentalis. The assay is described as follows: Insecticidal test against Frankliniella occidentalis. As to conditions: in Phaseolus vulgaris, 96 h, read-out: corrected mortality, rating of assessment.
Description: Insecticidal Test Against Frankliniella occidentalis
Female adults of Frankliniella occidentalis were inoculated onto Phaseolus vulgaris leaf pieces, and after allowing them to lay eggs for one day, the female adults were removed. […] Four days after the treatment, the number of surviving larvae of this species was examined. […] In duplicate.
For assay [2], the system named is L-1 stage larvae of Dirofilaria immitis. The assay is described as follows: Evaluation test of influence on the movement of Dirofilaria immitis larvae. As to conditions: 72 h, read-out: corrected movement inhibition rate.

Description for Plutella xylostella: Insecticidal Test Against Plutella xylostella
Six days after the immersion in the drug solution, the number of surviving insects was examined. […] In triplicate using 10 per plot.

Regarding `O=C1CN(c2ncc(Br)cn2)CC(O)=C1C(=O)Nc1ccc(F)cc1` [Compound 1-65, 1-(5-bromopyrimidin-2-yl)-N-(4-fluorophenyl)-5-hydroxy-3-oxo-1,2,3,6-tetrahydropyridine-4-carboxamide], the mortality at 500 ppm (with Plutella xylostella; in assay [1]) was 100% each time.
Consider `CC(C)(C)OC(=O)N1CC(=O)C(C(=S)Nc2ccc(Cl)cc2)=C(O)C1` [Compound 2-13, tertiary-butyl 4-((4-chlorophenyl)carbamothioyl)-5-hydroxy-3-oxo-3,6-dihydropyridine-1 (2H)-carboxylate], for which the mortality at 500 ppm with Plutella xylostella came to 100%.
As for `CC(C)(C)OC(=O)N1CC(=O)C(C(=O)Nc2ccc(F)cc2)=C(O)C1` [Compound 1-36, tertiary-butyl 4-((4-fluorophenyl)carbamoyl)-5-hydroxy-3-oxo-3,6-dihydropyridine-1 (2H)-carboxylate], the mortality at 500 ppm (in the assay with Plutella xylostella; in assay [1]) was 100% in each case. Further, in assay [2], the inhibition at 50 ppm is at least 50%.
As for `N#Cc1ccc(N2CC(O)=C(C(=O)Nc3ccc(F)cc3)C(=O)O2)cc1` [Compound 3-1, 2-(4-cyanophenyl)-N-(4-fluorophenyl)-4-hydroxy-6-oxo-3,6-dihydro-2H-1,2-oxazin-5-carboxamide], the mortality at 500 ppm with Plutella xylostella was 100%.
